Source: US4138485A, “Phenylalanine derivatives” (Kyowa Hakko Kogyo Kabushiki Kaisha, priority 1976, dated 1979)

Assays:
[1] = system: hyperlipemia induced by Triton; experiment: Cholesterol-lowering activity on hyperlipemia induced by Triton in mice; format: in vivo, mice (male dd-strain); details: Mus musculus, po, 43 h, read-out: Ratio of the reduction of cholesterol
Description: (2) Cholesterol-Lowering activity on hyperlipemia induced by Triton in mice:
38 Groups, each consisting of 9 mice (male dd-strain, weight -- 19 to 21 g), were used for the test and control groups. […] Immediately after the administration and also after 20 hours from the administration of Triton, the mice were orally administered with 100 mg/kg of the compound shown in Table 3. 43 hours after the administration of Triton, the blood samples were collected by decapitation and then the corpuscle was removed by centrifugation. Cholesterol in the serum was determined by Zurkowski's method modified by Shibata (color of the test solution was developed by using sulfoalicyclic acid, acetic acid and sulfuric acid and the optical density of the solution was determined at 620 mμ.

Acute toxicity in rats = details: in vivo; rat, oral administration, after one week; read-out: Acute Toxicity (LD50), C
Description: (§1) (1) Acute toxicity and tonic convulsion in hind paw:
(§2) The acute toxicity and tonic convulsion occured by stimulus by hand touch were determined in the following manner to give the results shown in Table 2.
(b) Acute toxicity in rats:
28 Groups, each consisting of 5 rats (male Wistar strain, weight -- 200 g), were used for the test and control groups. The compounds shown in Table 2 were orally administered to the rats. After one week, the survival ratio was measured.

Acute toxicity in mice = details: in vivo, mouse, after one week
Description: as §1, §2
(a) Acute toxicity in mice:
38 Groups, each consisting of 5 mice (male dd-strain, weight -- 18 to 24 g), were used for the test and control groups. The compounds shown in Table 2 were administered orally or intraperitoneally to the mice. After one week, the survival ratio was measured.

Cholesterol in the serum = experiment: Cholesterol-lowering activity on normal rats of Wistar strain (serum cholesterol, liver weight); format: in vivo, rats (male Wistar strain); details: continuous administration for 4 days, 0.3% in diet
Description: (3) Cholesteral-lowering activity on normal rats of Wistar strain:
(i) 22 Groups, each consisting of 5 rats (male Wistar strain, weight -- 150 to 180 g) were used for the test and control groups. After this, the blood samples were collected by decapitation and then the corpuscle was removed by centrifugation. Cholesterol in the serum was determined by Zurkowski's method modified by Shibata and also the liver was excised and weighed. The results are shown in Table 4 wherein the ratio of 100% denotes the amount of chloresterol and the weight of the liver of normal rats fed with powdery diet without the addition of the compound.

[2] = oral administration, read-out: Acute Toxicity (LD50), A
[3] = ip, intraperitoneal administration, read-out: Acute Toxicity (LD50), B

| SMILES | inhibition in vivo at 100 mg/kg [1] [%] | LD50 at 168 h (Acute toxicity in rats) [mg/kg] | LD50 at 168 h (Acute toxicity in mice; [2]) [mg/kg] | B - Ratio of decrease of liver weight (Cholesterol in the serum) [%] | LD50 at 168 h (Acute toxicity in mice; [3]) [mg/kg] |
| --- | --- | --- | --- | --- | --- |
| COC(=O)C(Cc1ccccc1)NC(=O)SCc1ccccc1 (racemic) [Compound 19, N-benzylthiocarbonyl-D,L-phenylalanine methylester] | 84 | > 100 | > 1000 | 19.8 | – |
| Cc1ccc(CSC(=O)NC(Cc2ccccc2)C(=O)O)cc1 (racemic) [Compound 35, N-(4-methylbenzylthiocarbonyl)-DL-phenylalanine] | 22 | – | > 1000 | – | – |
| CCOC(=O)[C@H](Cc1ccccc1)NC(=O)SCc1ccc(C)cc1 [Compound 3, N-(4-methylbenzylthiocarbonyl)-L-phenylalanine ethylester] | 57 | – | > 1000 | – | – |
| Cc1ccc(CSC(=O)N[C@@H](Cc2ccccc2)C(N)=O)cc1 [Compound 4, N-(4-methylbenzylthiocarbonyl)-L-phenylalanine amide] | 23 | > 100 | > 1000 | 6.2 | > 100 |
| CCNC(=O)[C@H](Cc1ccccc1)NC(=O)SCc1ccc(C)cc1 [Compound 5, N-(4-methylbenzylthiocarbonyl)-L-phenylalanine ethylamide] | 0 | > 100 | > 1000 | – | > 100 |
| COC(=O)[C@H](Cc1ccccc1)NC(=O)[C@H](Cc1ccccc1)NC(=O)SCc1ccc(C)cc1 [Compound 6, N-(4-methylbenzylthiocarbonyl)-L-phenylalanyl-L-phenylalanine methylester] | 39 | > 100 | > 300 | – | > 100 |
| O=C(N[C@@H](Cc1ccccc1)C(=O)O)SCc1ccc(Cl)cc1 [Compound 7, N-(4-chlorobenzylthiocarbonyl)-L-phenylalanine] | 94 | > 100 | > 300 | – | > 100 |
| COC(=O)[C@H](Cc1ccccc1)NC(=O)SCc1ccc(Cl)cc1 [Compound 8, N-(4-chlorobenzylthiocarbonyl)-L-phenylalanine methylester] | 88 | > 200 | > 4000 | – | > 100 |
| NC(=O)[C@H](Cc1ccccc1)NC(=O)SCc1ccc(Cl)cc1 [Compound 9, N-(4-chlorobenzylthiocarbonyl)-L-phenylalanine amide] | 57 | > 100 | > 1000 | 71 | > 100 |
| CCNC(=O)[C@H](Cc1ccccc1)NC(=O)SCc1ccc(Cl)cc1 [Compound 10, N-(4-chlorobenzylthiocarbonyl)-L-phenylalanine ethylamide] | 43 | > 100 | > 300 | – | > 100 |
| COC(=O)[C@H](Cc1ccccc1)NC(=O)[C@H](Cc1ccccc1)NC(=O)SCc1ccc(Cl)cc1 [Compound 11, N-(4-chlorobenzylthiocarbonyl)-L-phenylalanyl-L-phenylalanine methylester] | 75 | > 100 | > 300 | – | > 100 |
| COC(=O)[C@H](Cc1ccccc1)NC(=O)SCc1ccc(OC)cc1 [Compound 13, N-(4-methoxybenzylthiocarbonyl)-L-phenylalanine methylester] | 56 | > 100 | > 1000 | 38 | > 100 |
| O=C(N[C@@H](Cc1ccccc1)C(=O)O)SCc1ccc([N+](=O)[O-])cc1 [Compound 14, N-(4-nitrobenzylthiocarbonyl)-L-phenylalanine] | 66 | > 100 | > 1000 | 48.0 | – |
| COC(=O)[C@H](Cc1ccccc1)NC(=O)SCc1ccc([N+](=O)[O-])cc1 [Compound 15, N-(4-nitrobenzylthiocarbonyl)-L-phenylalanine methylester] | 29 | > 100 | > 1000 | 38.9 | – |
| COC(=O)[C@H](Cc1ccccc1)NC(=O)SCc1cccc(C)c1 [Compound 23, N-(3-methylbenzylthiocarbonyl)-L-phenylalanine methylester] | 48 | – | > 1000 | – | – |
| Cc1cccc(C)c1CSC(=O)N[C@@H](Cc1ccccc1)C(=O)O [Compound 24, N-(2,6-dimethylbenzylthiocarbonyl)-L-phenylalanine] | 34 | > 100 | > 1000 | 15.0 | – |
| COC(=O)[C@H](Cc1ccccc1)NC(=O)SCc1c(C)cccc1C [Compound 25] | 37 | > 100 | > 1000 | 45.3 | – |
| Cc1ccc(C)c(CSC(=O)N[C@@H](Cc2ccccc2)C(=O)O)c1 [Compound 26, N-(2,5-dimethylbenzylthiocarbonyl)-L-phenylalanine] | 43 | > 100 | > 1000 | 0.8 | – |
| COC(=O)[C@H](Cc1ccccc1)NC(=O)SCc1cc(C)ccc1C [Compound 27, N-(2,5-dimethylbenzylthiocarbonyl)-L-phenylalanine methylester] | 30 | > 100 | > 1000 | -0.2 | – |
| CC(C)(C)c1ccc(CSC(=O)N[C@@H](Cc2ccccc2)C(=O)O)cc1 [Compound 28, N-(4-tert-butylbenzylthiocarbonyl)-L-phenylalanine] | 50 | > 100 | > 1000 | 10.6 | – |
| Cc1c(C)c(C)c(CSC(=O)N[C@@H](Cc2ccccc2)C(=O)O)c(C)c1C [Compound 29, N-(2,3,4,5,6-pentamethylbenzylthiocarbonyl)-L-phenylalanine] | 59 | > 100 | > 1000 | – | – |
| O=C(N[C@@H](Cc1ccccc1)C(=O)O)SCc1ccc(F)cc1 [Compound 33, N-(4-fluorobenzylthiocarbonyl)-L-phenylalanine] | 79 | – | > 1000 | – | – |
| Cc1ccc(CSC(=O)N[C@H](Cc2ccccc2)C(=O)O)cc1 [Compound 34, N-(4-methylbenzylthiocarbonyl)-D-phenylalanine] | 11 | – | > 1000 | – | – |
| CC(=O)Oc1ccc(CSC(=O)N[C@@H](Cc2ccccc2)C(=O)O)cc1 [Compound 36, N-(4-acetoxybenzylthiocarbonyl)-L-phenylalanine] | 83 | – | > 1000 | – | – |
| COC(=O)[C@H](Cc1ccccc1)NC(=O)SCc1ccc(O)cc1 [Compound 37, N-(4-hydroxybenzylthiocarbonyl)-L-phenylalanine methylester] | 74 | – | > 1000 | – | – |
